Assay results taken from a melting point compilation (Tetko et al.; mined from patent text by program, amines drawn as free bases though some values may be those of a salt).

Row | Structure (SMILES) | melting point
1 | CN(C(=O)OC(C)(C)C)c1ccc(C#CCCCOS(C)(=O)=O)cc1 | 85 to 87 °C
2 | CCCS(=O)(=O)c1ccccc1S(=O)(=O)NC(=O)Nc1nc(Cl)cc(OCC)n1 | 220 to 222 °C
3 | O=c1[nH]c2c(Cl)c(Cl)ccc2s1 | 229 °C
4 | CCCCCCCCCCCCCCCCCCCCC(=O)Nc1ccn(C2OC(CO)C(O)C2O)c(=O)n1 (configuration not stated) | 139 to 142 °C
5 | Cc1ccc(Oc2nsnc(Cl)c2=O)cn1 | 155 to 156 °C
6 | CC(=O)NC1CCN(CCCCl)CC1 | 74 to 77 °C
7 | CC1(C)OC(C(F)(F)F)Nc2ccc(-c3cc(F)cc(C#N)c3)cc21 (configuration not stated) | 102 to 103 °C
8 | Cc1cc2cnn(CCO)c2cc1Nc1nnc2n1[C@H](c1ccc(F)cc1)COC2 | 215 to 217 °C
9 | NC(=O)NC(=O)c1nc(Cl)c(Cl)[nH]1 | > 290 °C
10 | CCOc1nc(N)c2ncn(C3C=CCCC3)c2n1 (configuration not stated) | 67 to 72 °C
11 | CCc1noc(-c2cc3c(cn2)[nH]c2ccccc23)n1 | 146 to 149 °C
12 | CCOC(=O)C=Cc1ccc(F)c([N+](=O)[O-])c1 | 115 to 117 °C
13 | CCOC(=O)c1cc2cc(F)cc(Br)c2[nH]1 | 125 °C
14 | Cc1c(C)c(N2CCN(c3nccs3)CC2)c(C)c2c1OC(C)(C)C2 | 150 to 151 °C
15 | BrCc1cccc(-c2cccc(CBr)n2)n1 | 180 to 181 °C
16 | COc1ccc(OC)c(C2(C(C)(C)O)CCN(C)CC2)c1 | 139 to 140 °C
17 | CC(C)(C)Nc1c(NCc2ccc(C(F)(F)F)cc2)c(=O)c1=O | 306 to 308 °C
18 | O=S(=O)(CC1CCC1)c1nc[nH]n1 | 125 to 134 °C
19 | CC1(C)c2cc(O)ccc2OC1O (configuration not stated) | 78 to 81 °C
20 | NS(=O)(=O)c1cc2cc[nH]c(=O)c2o1 | 290 to 291 °C
21 | CCOC(=O)c1c[nH]nc1-c1cccs1 | 123 to 124 °C
22 | Clc1cc2nc(-c3csc(Cc4c(Cl)cccc4Cl)n3)[nH]c2cc1Cl | 245 to 247 °C
23 | Cn1ncnc1COc1nn2c(-c3ccccc3F)nnc2cc1C(F)(F)F | 123 to 126 °C
24 | CCCOc1c(OCCCN2C(=O)c3ccccc3C2=O)cc(C2CCC(c3cc(OC)c(OC)c(OC)c3)O2)cc1S(=O)(=O)CCC (configuration not stated) | 195 to 196 °C

Row | Structure (SMILES) | melting point
25 | CNCC(=O)N[C@@H](CCCNC(=N)N)C(=O)N[C@@H](CCCNC(=N)N)C(=O)N[C@@H](C)P(=O)(O)O | 220 °C
26 | CC(=O)N1N=C(c2ccc(N)cc2)c2cc(Cl)c(Cl)cc2CC1C (configuration not stated) | 242 to 243 °C
27 | CCCn1c(=O)c2[nH]c(/C=C/c3ccc(OCC)cc3)nc2n(CCC)c1=O | 262 °C
28 | CCc1nc(CC)c(CO)c(-c2ccccc2)c1C=C(C)C | 103 to 104 °C
29 | O=C(O)COc1cc2cc(C3CCCCC3)sc2c(Cl)c1Cl | 167 to 168 °C
30 | Nc1cc(-c2c(-c3cccc(Cl)c3)nc3ccc(Cl)nn23)ccn1 | 268 to 269 °C
31 | Cn1cc(C(=O)O)c(=O)c2cc(F)c(F)c(F)c21 | 255 to 258 °C
32 | CCCc1ccc2nc(Cl)cn2n1 | 73.9 to 80 °C
33 | CC(C)(C)Nc1nc2cc(Cl)c(Cl)cc2n1C1CC(CO)C(O)C1O (configuration not stated) | 130 to 132 °C
34 | Cc1c(Cl)cc(C2=NNC(=O)CC2O)cc1Cl (configuration not stated) | 253 to 256 °C
35 | COc1cc(C=C(C#N)C(N)=O)cc(OC)c1OC | 128 to 130 °C
36 | O=c1[nH]c(N[N+](=O)[O-])ncc1Cc1ccn(Cc2ccccc2)c(=O)c1 | 200 to 201 °C
37 | OCc1cccc(-c2cc3nccnc3[nH]2)c1 | 225 to 226 °C
38 | Cc1c(N2C(=O)[C@H]3[C@@H](O)CCN3C2=O)ccc(C#N)c1Cl | 237 to 238 °C
39 | CCOC(=O)C(C)OCC#Cc1nc(Cl)ccc1N (configuration not stated) | 70 °C
40 | Brc1ccc(N2CCC3(CCNCC3)CC2)nc1 | 103 to 105 °C
41 | COc1ccc2c(c1)C(C)(C)NC(=O)O2 | 178 to 180 °C
42 | CCOC(=O)C1CSC(c2nsc3ccc(-n4c(=O)cc(C(F)(F)F)n(C)c4=O)cc23)N1 (configuration not stated) | 97 to 98 °C
43 | [N-]=[N+]=NCCCc1ccc(C(N)=O)s1 | 85 to 87 °C
44 | COc1cccc2sc(C3CCNC(C)C3)cc12 (configuration not stated) | 70 to 73 °C
45 | CCCCCCCc1ccccc1C=CC(=O)c1ccc(OCC=C(C)C)cc1O | 65 to 67 °C
46 | CC(C(=O)c1ccc(F)cc1F)c1ncccn1 (configuration not stated) | 118 to 119 °C
47 | N#CC1CCn2cccc21 (configuration not stated) | 44 to 45 °C
48 | CCCCCCCCCCCCOC(=O)c1ccc(O)c([N+](=O)[O-])c1 | 70 °C

Further lines, results first:

Row | melting point | Structure (SMILES)
49 | 42 to 46 °C | CCCc1ccc(-n2nc(Cl)cc2-c2ccc(S(C)(=O)=O)cc2)cc1[N+](=O)[O-]
50 | 108 to 112 °C | CCc1nc2c(C)cc(C)cc2n1-c1ccc(CCNC(=O)NS(=O)(=O)c2ccc(C)cc2)cc1
51 | 124 to 125 °C | O=C(O)CCc1cn(Cc2ccc(OCc3ccncc3)cc2)cc1-c1ccccc1
52 | 252 to 254 °C | CC#CC(=O)Nc1ccc2ncnc(Nc3cccc(N(C)C)c3)c2c1
53 | > 275 °C | CN1C(=O)CCC(C)(C)c2cc(NC(=O)c3ccc(C(=O)O)cc3)ccc21
54 | 140 to 142 °C | Cc1cccc(NC(=O)Nc2ccc(-c3c(C(N)=O)[nH]c4ccccc34)cc2)c1
55 | 101 to 103 °C | CCOC(=O)c1cccc(-c2ccc3ccccc3c2)c1
56 | 193 to 200 °C | NS(=O)(=O)c1ccc(N2CN(c3ccccc3)CC2=O)c(Br)c1
57 | 131 to 135 °C | O=C(O)Cc1cn(-c2ccccc2)c2ccccc12
58 | 164 to 166 °C | Nc1cccc2c(-c3ccccc3)c([N+](=O)[O-])oc12
59 | 99 to 100 °C | CC(C)(C=O)C(=O)Nc1ccc(Cl)cc1
60 | 70 to 73 °C | CCC(=O)NC1CCC(CNc2nc3c(s2)CCOc2ccccc2-3)CC1 (configuration not stated)
61 | 217 °C | CSc1ccc2ccc(C(=O)O)cc2c1
62 | 216 to 217 °C | O=C(COc1ccc(C2=NNC(=O)NC2)cc1)NCCN1CCOCC1
63 | 63 to 65 °C | CCCS(=O)(=O)Nc1cc(OC[C@@H](O)CNC2CCN(c3ccc(C(=O)OCC)cc3)CC2)ccc1O
64 | 193 to 195 °C | CC1=C(C(=O)O)C(c2cccc([N+](=O)[O-])c2)N(C(=O)N(C)C)C(=O)N1 (configuration not stated)
65 | 93 to 95 °C | CCC1CCC(Oc2cc(F)cc(C(=O)Nc3ccc(OCc4ccncc4)c4ccccc34)c2)CC1 (configuration not stated)
66 | 249 to 250 °C | CC(=O)Nc1cccc(CNC(=O)c2[nH]c3ccc(Cl)cc3c2S(=O)(=O)c2ccccc2)c1
67 | 59 to 61 °C | O=c1oc(-c2ccccc2)cc(O)c1C(CC1CC1)SCc1ccccc1 (configuration not stated)
68 | 200 to 204 °C | COc1ccc2[nH]c(C(=O)c3ccc(Cl)cc3)c(CC(=O)O)c2c1
69 | 185 °C | CN1CCC(OC2c3ccccc3CCn3c2nc(-c2ccccc2)c3C(=O)O)CC1 (configuration not stated)
70 | 185 °C | Cn1ncnc1COc1nn2c(-c3ccccc3)nncc2c1-c1ccccc1
71 | 151 to 152 °C | O=C(Nc1ccccc1C(=NC1CCN(Cc2ccccc2)CC1)c1ccccc1)C(Cl)(Cl)Cl
72 | 219 to 221 °C | O=[N+]([O-])c1cccc(-c2csc(NS(=O)(=O)Cc3ccccc3)n2)c1
73 | 139 to 140 °C | Cc1c(C(F)(F)F)noc1NS(=O)(=O)c1ccc(-c2ccccc2)cc1
74 | 174 to 175 °C | Cc1ccnc(Sc2nc(-c3ccc(Cl)cc3)c(CCC(=O)O)o2)n1
75 | 180 to 185 °C | O=C(O)c1ccc(NCCc2ccc(OCc3ccccc3)cc2)cc1

Row | melting point | Structure (SMILES)
76 | 91 to 92 °C | O=C(O)CCSC(c1ccccc1CCCCCCCCc1ccccc1)C(O)C(=O)O (configuration not stated)
77 | 186 to 189 °C | OCc1ccc(/C=C/c2ccc[nH]2)cc1
78 | 111 °C | C=C(C)Cn1c(=O)n(C)c(=O)c2cc(Cc3ccc(OC)cc3)sc21
79 | 204 to 206 °C | O=C(Nc1cccc(F)n1)c1cc(-c2ccc(Cl)c(Cl)c2)nc2ccccc12
80 | > 250 °C | CNCC1Cc2cc(-c3ccccc3)cc(-c3ccc(Cl)cc3)c2O1 (configuration not stated)
81 | 180 to 182 °C | COC(=O)c1cc(-c2ccc(OC)c(Cl)c2)nn(CC=Cc2ccc(Cl)cc2)c1=O
82 | 123 to 124 °C | COc1ccc(C(=O)N2CSCC2=O)cc1
83 | 174 to 176 °C | Cc1cc(-c2cc(O)c(SCc3ccccc3)c(=O)o2)cc(C)c1O
84 | 91 °C | Cn1cc(-c2cc(-c3cnc4[nH]ccc4c3)ccn2)n(-c2ccc(C(C)(C)CN)cc2)c1=O
85 | 163 to 165 °C | CCNP(=O)(Cc1ccc(NC(=O)C2=Cc3cc(C4CCCCC4)ccc3CC2)cc1)NCC
86 | 106 °C | CC(=O)N1c2ccc(-c3ccc(CN4CCCCC4)cc3)cc2C(Nc2ccc(F)cc2)CC1C (configuration not stated)
87 | 160 to 161 °C | COC(=O)NNC(=O)C(O)(c1ccccc1)c1ccccc1
88 | 254 °C | O=C(Nc1ccc(-c2ccc(C(=O)N3CCN4CCC3CC4)o2)cc1)c1ccccc1
89 | 89 to 91 °C | Cn1ccc(Nc2n[nH]c3c(OCCc4ccccn4)cc(-c4ncccc4Cl)cc23)n1
90 | 192 to 198 °C | COc1ccc(-c2cncn2-c2ccc(S(C)(=O)=O)cc2)c(Cl)n1
91 | 119 °C | Cc1noc(-c2ccc(S(C)(=O)=O)cc2)c1-c1ccc(-c2cscn2)cc1
92 | 250 to 252 °C | NC(=O)NCc1cc2cc(CN3CCOCC3)cc3c(=O)c(C(=O)NCc4ccc(Cl)cc4)cn1c23
93 | 84 to 86 °C | N#Cc1cc(N)ccc1N1CCC(N2CCOCC2)CC1
94 | 176 to 178 °C | Clc1ccc(-c2cc(C3CCN(CC4CC4)CC3)n[nH]2)cc1
95 | 117 to 119 °C | S=C(Nc1cccc(Cl)c1)N1CCOC1C1CCCCC1 (configuration not stated)
96 | 136 to 137 °C | Cc1cc(OCc2oc(-c3ccc(C(F)(F)F)cc3)nc2C)ccc1OCC(=O)O
97 | 170 to 174 °C | CCOC(=O)N1CCN(C2=Nc3ccc(Br)c4cccc2c34)CC1
98 | 178 to 180 °C | Cc1nc2c3c(ccn2c1C)[C@@H](OCC(F)(F)F)[C@H](O)[C@@H](c1ccccc1)N3
99 | 110 to 111 °C | CC(C)(C)CC(C)(C)NC(=O)C1=C(c2ccccc2)C(c2ccccc2)OC1=O (configuration not stated)
100 | 146 to 148 °C | COc1cc(OC)cc(N2CCN(C(=S)Nc3cc(C(C)O)c(C)cc3OC)CC2)c1 (configuration not stated)
101 | 180 °C | CCCCC[C@H]1CC[C@H](c2ccc(-c3ccc(CO)cc3)cc2)CC1
102 | 128 to 130 °C | Nc1ccc(-c2ncnn2-c2ccc(Br)cc2)cc1
